# A melting point compilation (Tetko et al.; mined from patent text by program, amines drawn as free bases though some values may be those of a salt)
row,melting point [°C],Compound
1,79 to 81,CCCc1c(SCCCOc2ccc(C(C)=O)c(OCCCC(=O)O)c2CCC)ccc(C(C)=O)c1O
2,308 to 312,Cn1c(-c2cc(C(C)(C)C)c(O)c(C(C)(C)C)c2)n[nH]c1=O
3,167 to 168,CCc1nn(C2CCCC2)c(N)c1C(N)=O
4,178 to 182,Clc1cccc2c(C3CCN(CCCOc4cccc5[nH]ccc45)CC3)c[nH]c12
5,184 to 185,COc1ccc(CC(CS)C(=O)Nc2cccc(C(=O)O)c2)cc1 (stereo unspecified)
6,215 to 217,Oc1ccc(O)c(-c2noc3cc(O)ccc23)c1
7,202 to 205,O=C(OCC(Cl)(Cl)Cl)N1CCC(C2c3cccc4c3N(CC4)c3ccccc3N2C(=O)OCC(Cl)(Cl)Cl)CC1 (stereo unspecified)
8,208 to 211,CC(CCC(=O)O)C1CCC2C3C(=O)CC4CC(OC=O)CCC4(C)C3CC(OC=O)C12C (stereo unspecified)
9,144 to 145,Nc1ncnc2c1ncn2C1OC(C(O)C(=O)OCc2ccccc2)C(O)C1O (stereo unspecified)
10,224 to 226,CCn1c2ccccc2c2oc(C(N)=O)cc(=O)c21
11,194 to 204,CC(=O)N(C)C(CCCC(=O)O)C(=O)N(C)c1c(I)cc(I)c(C(=O)O)c1I (stereo unspecified)
12,246 to 249,O=C(O)c1ccc(NC(=O)c2ccccc2-c2ccccc2)cc1
13,233 to 235,OCCCn1c(-c2c(Cl)cccc2Cl)nc(-c2ccncc2)c1-c1ccc(Cl)cc1
14,271 to 273,CC(C)C(=O)N1C2=NCCN2C(=O)c2nc(C(C)C)[nH]c21
15,152 to 154,COc1ccc(/C=C(\C#N)c2ccc(Cl)c(Cl)c2)cc1OC1CCCC1
16,187 to 189,CCOC(=O)CC(=O)CC(=O)c1cccnc1
17,175 to 177,Cc1nc2c(C(F)(F)F)cccc2c(-c2ccccc2)c1C(=O)c1ccccc1
18,36 to 37.5,CCCCCCCCC(=O)COS(=O)(=O)c1c(C)c(C)cc(C)c1C
19,107 to 111,O=S(=O)(c1ccc(-c2ccc(C3COC(c4c(F)cccc4F)=N3)cc2)cc1)C(F)F (stereo unspecified)
20,100 to 102,CON=C(c1ccccc1)c1ccc2c(c1)C(C)(C)CCN2CCOc1ccc(CC(Nc2ccccc2C(=O)c2ccccc2)C(=O)O)cc1 (stereo unspecified)
21,170 to 175,CCN(CC)c1ccc(NC(=O)N(C[C@H]2CC[C@H](CN(C(=O)Nc3ccc(N(CC)CC)cc3)C3CCCCCC3)CC2)C2CCCCCC2)cc1
22,98 to 100,Cc1cc2c(c(C)c1Br)C(c1ccc(C(C)C)cc1)CS2 (stereo unspecified)
23,148 to 150,O=C1c2cc(O)ccc2OCN1CCO

row,melting point [°C],Compound
1,78 to 79,CCCOC(=O)C(=C1SC=CS1)S(=O)(=O)C(C)C
2,245 to 249,Cc1ccc([N+](=O)[O-])c(C)c1C(=O)c1c[nH]cn1
3,225 to 228,Cc1nc(-c2ccc(C#N)cc2)sc1C(=O)N1CC(O)O[C@@](Cn2cncn2)(c2ccc(F)cc2F)[C@H]1C (stereo partly specified)
4,133 to 134,CCCCCCc1oc(C=Cc2ccccc2)nc1C(=O)O
5,138 to 141,COc1ccc(NN=C(Sc2ccc(OC)c(OC)c2)C(C)=O)cc1
6,257 to 259,CC1(O)CCN(C(=O)c2cc(-c3cnc4[nH]cc(C(=O)C5(C)CCCCC5)c4n3)cs2)CC1
7,134 to 136,CC(C)n1nc(-c2sc(NC(=O)c3ccc(CNCCN4CCCCC4)cc3)nc2-c2ccccc2)ccc1=O
8,> 300,Cc1nc2nc3cc(Cl)ccc3nc2[nH]1
9,94 to 95,COc1cc(COc2nn(C)cc2C(C)O)ccc1OCc1nc(-c2ccccc2)oc1C (stereo unspecified)
10,106 to 107,Cc1cc(C)c2c(C)coc2c1Cc1ccc(C(C)C)cc1
11,170 to 172,CS(=O)(=O)c1ccc(C(=O)Nc2ccc(Cl)c(-c3ncc(C(=O)NO)cn3)c2)c(Cl)c1
12,106,CC(C)CCOc1ccc(S(=O)(=O)C2(C(=O)NO)CCN(Cc3ccccc3)CC2)cc1
13,261 to 263,N#Cc1ccc2nc3c(c(=O)n2c1)SCC3
14,193 to 197,Cc1ncc2c(n1)-c1ccc(Cl)cc1C(c1ccccc1Cl)=NC2
15,205 to 206,CN(C)S(=O)(=O)c1cc(C(=O)O)cc(NCc2ccccc2)c1Oc1ccccc1
16,73 to 74,COc1ccc2c(c1)C(CCNC(C)=O)CC2 (stereo unspecified)
17,> 250,O=C(O)Cn1c(=O)c(=O)[nH]c2ccc3ccc(-n4ccc(CN5CCN(C(c6ccccc6)c6ccccc6)CC5)c4)cc3c21
18,178 to 179,CN(CCCNc1ncc(Cc2ccc(Br)cc2)c(=O)[nH]1)c1ccccn1
19,135 to 136,CC(=O)C1CCC2C3CCC4C=CCCC4(C)C3CCC12C (stereo unspecified)
20,147 to 148,COC(=O)c1cccc(-c2nc(-c3ccc(F)c(F)c3)cs2)c1
21,296,O=C1C2=C(NC3(OCCO3)C(c3ccccc3)=N2)c2ccccc21
22,154 to 156,OCCNc1cc(Nc2ccc(Oc3ccccc3)cc2)ncn1
23,173 to 174,CC(=O)Nc1cc2c(cc1[N+](=O)[O-])OC(C)(C)O2

row,melting point [°C],Compound
1,118 to 119,O=C(Cc1ccc2ccn(C3CCN(CCc4ccc(F)cc4)CC3)c2c1)NCC1OCCO1
2,200 to 205,Fc1cccc(F)c1-c1ncc(NCc2ccc(Cl)cc2)nn1
3,65 to 67,CC(=O)c1cccc(Oc2ncc(C(F)(F)F)cc2F)c1
4,197 to 199,CCCCNC(=O)Nc1ccc(-n2ccnc2)cc1C(=O)NCC1CCN(C(c2ccccc2)c2ccccc2)CC1
5,162,CC(C)(C)C(=O)OCOC(=O)C(C)(C)n1nc2ccc(NCCCN3CCC(OC(c4ccccc4)c4ccccc4)CC3)nn2c1=O
6,166 to 168,CCOC(=O)c1c(O)c2cnc(SC)nc2n(C)c1=O
7,107 to 109,CCOC(=O)NC(C(=O)OC)C(c1ccccc1)c1ccccc1 (stereo unspecified)
8,165 to 166,CCCNc1nc(-c2ccccc2)c(-c2ccc(=O)n(C(C)C)n2)s1
9,175 to 178,COC(=O)c1ccc(OC)c(I)n1
10,225 to 227,c1ccc(Oc2ccc3nnn(Cc4ccc5ncccc5c4)c3n2)cc1
11,98 to 99,Fc1ccc(-c2ncn(CCCSc3ccccc3)c2-c2ccncc2)cc1
12,138 to 139,CCN1C(=O)C(C)(C)C(=O)N(C)c2cc(CN(CCn3ccc4oc(C)cc4c3=O)Cc3cc(C)n(C)n3)ccc21
13,395 to 396,COc1ccc(-n2nc(O)c3c(=O)c4ccc(Cl)cc4[nH]c3c2=O)cc1Cl
14,200 to 202,CC1=C(c2cccc(C(F)(F)F)c2)n2ncc(C(N)=O)c2NC1
15,200 to 201,COc1ccc(-c2cccc(-c3nc(=O)c4ccccc4s3)n2)cc1
16,150 to 152,CC(C)(C)c1cc(C(c2ccc(C(F)(F)F)cc2)N2CCCCC2)c(O)c(C(C)(C)C)c1 (stereo unspecified)
17,272 to 273,COc1c(Cl)cc2c(=O)[nH]c(=O)[nH]c2c1OC
18,> 230,O=C1NCc2cnc(Nc3ccc(N4CCC(CCCO)CC4)cc3)nc2N1C1CCCC1
19,82 to 83,CC1(C)OC(=O)COC1=O
20,180,CNC(=O)N1CCc2[nH]cnc2C1c1ccccc1 (stereo unspecified)
21,243 to 245,CC(C)NC(=O)C(C#N)=Cc1cc(O)c(O)c([N+](=O)[O-])c1
22,154 to 156,CCOC1=NS(=O)(=O)c2ccc(N)cc21
23,180 to 183,COCCO[C@@H]1c2ccn3c(CO)c(C)nc3c2N[C@H](c2ccccc2)[C@H]1O

row,melting point [°C],Compound
1,128 to 129,Cc1c(-c2ccccc2)oc2c(OCC3CO3)cccc2c1=O (stereo unspecified)
2,298 to 300,NC(=O)c1c[nH]c2cc(Cl)c([N+](=O)[O-])cc2c1=O
3,65.5 to 67,C[C@]1(Cn2cc([N+](=O)[O-])nc2Cl)CO1
4,> 250,CC(=O)NCC1CN(c2ccc3c(c2)OCC2CN(C(=O)c4cc5ccccc5[nH]4)CCN32)C(=O)O1 (stereo unspecified)
5,78 to 86,C=C(Cc1ccc(Cl)cc1)C(=O)O
6,190 to 193,CC(CNc1cc(Oc2ccc3c(C(=O)Nc4cc(C(C)(C)C)nn4-c4ccc(F)cc4)cccc3c2)ncn1)N(C)C (stereo unspecified)
7,176 to 179,O=C(O)COc1cccc2c1CCc1sc(SC(c3ccccc3)c3ccccc3)nc1-2
8,282,Oc1ccc(N2CCN(n3ccnc3)CC2)cc1
9,208 to 210,Cc1ccc(C(=O)NC(NC(=S)Nc2ccc(F)cc2)C(F)(F)F)cc1 (stereo unspecified)
10,149 to 154,CC(=O)OCSc1ccc2c3c(cccc13)C(=O)N2
11,177 to 180,COc1ccc2c(c1)c(Cc1nc(-c3ccc(Br)cc3)cs1)c(C)n2C(=O)c1ccc(Cl)cc1
12,168 to 171,CC(=O)Oc1ccc(/C=C2/Sc3nc(Nc4ccc(N5CCN(C)CC5)cc4)ncc3NC2=O)cc1
13,231 to 233,O=c1[nH]c2c(cc1-c1nc(-c3ccccc3)no1)CN(Cc1ccccc1)CC2
14,230 to 231,CC(C)(O)c1cccc(-c2ccc3nc(-c4ccc(Cl)cc4)cn3c2)c1Cl
15,78 to 79,CC(=O)Oc1c(C(=O)c2ccccc2Cl)c(C)nn1C
16,116 to 120,O=C1CCCOc2ccc(O)cc21
17,187 to 188,COc1ccc2c(N)c(C(=O)Nc3ccc(Cl)cc3Cl)oc2c1
18,145 to 147,Cc1cn2ccc3c(c2n1)NC(c1ccccc1)C(OC(=O)C(C)(C)C)C3=O (stereo unspecified)
19,158 to 160,Cc1cc(-c2cccc(C(=O)CC(=O)Nc3cc(-c4ccccc4F)ccc3NC(=O)OC(C)(C)C)c2)on1
20,153 to 154,COC(OC)C1(C)CN=C(c2cc3cccc(N(C)S(=O)(=O)c4cccs4)c3[nH]2)S1 (stereo unspecified)
21,117,CC(C)(C)OC(=O)n1c(C(=O)O)cc2ccccc21
22,173 to 174,Cc1cccc(-c2sc(NC(=O)Nc3ccccc3)nc2-c2cc(C)nc(C)c2)c1
23,211 to 212,NC(=O)NN=Cc1ccc(OCc2ccccc2F)cc1

row,Compound,melting point [°C]
1,CSC(=NS(=O)(=O)N1CCCCC1)N1CC(c2ccccc2)C(c2ccc(Cl)cc2)=N1 (stereo unspecified),192 to 194
2,Cc1cccc(NC2=NCCO2)c1C,112 to 114
3,OOC1(OO)C2CC3CC(C2)CC1C3,144 to 145
4,O=C(NC1CC1)c1cc2[nH]cnc2c(Cl)c1NC(=O)c1cc(C(F)(F)F)nn1-c1ncccc1Cl,198 to 201
